Among the data in patent US20100130738A1 (priority 2007, published 2010) are inhibition in vivo and IC50 values, retold here.

For experiment [1], the system named is histamine-induced bronchoconstriction in guinea pigs. The experiment can be described thus: Histamine-induced bronchoconstriction reaction in guinea pigs. Format: in vivo, guinea pig. Particulars: Cavia porcellus, iv, 0.5 min, compound 0.3 mg/kg i.v., measured 30 seconds after administration, histamine 12.5 μg/kg i.v., read-out: Inhibition rate (histamine-induced bronchoconstriction). The procedure:
Guinea pigs were anesthetized with pentobarbital (30 mg/kg, i.p.). A cannula for intravenous administration, a cannula for collecting blood and measuring blood pressure, and a tracheal cannula were inserted into the left external jugular vein, right internal carotid artery, and trachea, respectively. The guinea pigs were maintained on artificial respiration under conditions of 60 times/min and 10 mL/kg/stroke. The overflowing air from the side branch of the tracheal cannula was measured by a bronchospasm transducer (Ugo-Basile) and recorded on a computer via Power Lab (ADInstruments Japan). The guinea pigs were immobilized with gallamine (10 mg/kg, i.v.), and histamine (12.5 μg/kg, i.v.) was administered at 10-minute intervals. After the histamine-induced bronchoconstriction became stable, the compound (0.3 mg/kg, i.v.) was administered. The histamine-induced bronchoconstriction reaction was measured 30 seconds after the compound administration to examine the bronchoconstriction inhibitory activity of the compound. The bronchoconstriction was recorded as the airflow value, and the results were represented by the ratio of the maximum value of the histamine-induced airflow 30 seconds after administration to the maximum value of the airflow before administration. Also, the test compounds dissolved in DMSO were used. Further, the indications were as follows: inhibition rate≧90% (+++), 90%>inhibition rate≧80% (++), and 80%>inhibition rate≧60% (+).

Experiment [2] addresses T1, PDE3A catalytic domain (PDE3Acat) (Homo sapiens, UniProt Q14432).
T1 construct: isolate the cDNA of a PDE3A catalytic domain; made in house; host or cells: Sf9 insect cells (baculovirus, Bac-to-Bac / Gateway)
The experiment in a line: Phosphodiesterase inhibitory activity, recombinant PDE3Acat, [3H]cAMP. Format: biochemical. Particulars: 30° C. 20 minutes, read-out: IC50 (μmol/L) PDE3.

In experiment [3] the target is T2, PDE4Bcat (Homo sapiens, UniProt Q07343).
T2 construct: made in house; host or cells: Sf9 insect cells (baculovirus, Bac-to-Bac / Gateway)
T2 sequence (Q07343 330-659 limits assumed): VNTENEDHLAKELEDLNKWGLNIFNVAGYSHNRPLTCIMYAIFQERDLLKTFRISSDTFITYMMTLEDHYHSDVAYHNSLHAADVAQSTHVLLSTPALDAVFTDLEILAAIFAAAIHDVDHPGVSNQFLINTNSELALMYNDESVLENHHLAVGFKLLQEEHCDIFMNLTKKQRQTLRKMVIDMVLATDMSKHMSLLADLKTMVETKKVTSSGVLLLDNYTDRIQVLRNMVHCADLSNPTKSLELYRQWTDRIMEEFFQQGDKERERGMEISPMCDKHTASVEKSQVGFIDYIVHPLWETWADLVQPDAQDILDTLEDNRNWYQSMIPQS
The experiment in a line: Phosphodiesterase inhibitory activity, recombinant PDE4Bcat, [3H]cAMP. Type of experiment: biochemical. Particulars: 30° C. 20 minutes, read-out: IC50 (μmol/L) PDE4.

T1 sequence (Q14432 674-1093 limits assumed): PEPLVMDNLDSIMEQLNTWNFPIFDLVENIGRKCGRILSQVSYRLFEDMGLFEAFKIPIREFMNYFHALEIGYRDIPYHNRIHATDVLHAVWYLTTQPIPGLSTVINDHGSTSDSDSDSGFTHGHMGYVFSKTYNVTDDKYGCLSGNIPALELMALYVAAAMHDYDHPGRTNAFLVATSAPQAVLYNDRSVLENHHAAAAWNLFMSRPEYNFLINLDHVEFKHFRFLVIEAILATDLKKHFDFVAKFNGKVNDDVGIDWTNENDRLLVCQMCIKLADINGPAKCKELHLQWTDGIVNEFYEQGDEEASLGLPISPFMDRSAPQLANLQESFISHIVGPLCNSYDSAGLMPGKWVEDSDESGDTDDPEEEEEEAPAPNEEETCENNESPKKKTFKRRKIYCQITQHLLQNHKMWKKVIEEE

With `COc1ccc(C2=NN(CCCCOc3ccc(C4=NNC(=O)CC4C)cc3)C(=O)C2(C)C)c2ccc(C)nc12` (stereo not drawn) [Example 193, 5-(8-Methoxy-2-methylquinolin-5-yl)-2-[4-[4-(4-methyl-6-oxo-1,4,5,6-tetrahydropyridazin-3-yl)phenoxy]butyl]-4,4-dimethyl-4,4-dihydro-pyrazol-3-one], the inhibition in vivo at 0.3 mg/kg in experiment [1] was ≥ 90%. For the same molecule, the IC50 in experiment [2] and in experiment [3] was 0.01 to 0.1 µmol/L throughout.

With `CCc1ccc2c(C3=NN(CCCCOc4ccc(C5=NNC(=O)CC5C)cc4)C(=O)C3(C)C)ccc(OC)c2n1` (stereo not drawn) [Example 194, 5-(2-Ethyl-8-methoxyquinolin-5-yl)-2-[4-[4-(4-methyl-6-oxo-1,4,5,6-tetrahydropyridazin-3-yl)phenoxy]butyl]-4,4-dimethyl-2,4-dihydro-pyrazol-3-one], in experiment [1], the inhibition in vivo at 0.3 mg/kg is ≥ 90%. In addition, the IC50 in experiment [2] and in experiment [3] was 0.01 to 0.1 µmol/L each time.

In the case of `COc1ccc(C2=NN(CCCCOc3ccc(C4=NNC(=O)CC4C)cc3)C(=O)C2(C)C)c2ccc(C(C)C)nc12` (stereo not drawn) [Example 195, 5-(8-Methoxy-2-isopropylquinolin-5-yl)-2-[4-[4-(4-methyl-6-oxo-1,4,5,6-tetrahydropyridazin-3-yl)phenoxy]butyl]-4,4-dimethyl-2,4-dihydro-pyrazol-3-one], the values for the IC50 in experiment [2] and in experiment [3] were < 0.01 µmol/L and 0.1 to 1 µmol/L, respectively.

Regarding `COc1ccc(C2=NN(CCCCOc3ccc(C4=NNC(=O)CC4C)c(F)c3F)C(=O)C2(C)C)c2ccc(C)nc12` (stereo not drawn) [Example 196, 2-[4-[2,3-Difluoro-4-(4-methyl-6-oxo-1,4,5,6-tetrahydropyridazin-3-yl)phenoxy]butyl]-5-(8-methoxy-2-methylquinolin-5-yl)-4,4-dimethyl-2,4-dihydro-pyrazol-3-one], the inhibition in vivo at 0.3 mg/kg in experiment [1] was ≥ 90%. Moreover, the IC50 in experiment [2] is < 0.01 µmol/L; in experiment [3], 0.01 to 0.1 µmol/L.

In the case of `CCc1ccc2c(C3=NN(CCCCOc4ccc(C5=NNC(=O)CC5)c(F)c4F)C(=O)C3(C)C)ccc(OC)c2n1` [Example 198, 5-(2-Ethyl-8-methoxyquinolin-5-yl)-2-[4-[2,3-difluoro-4-(6-oxo-1,4,5,6-tetrahydropyridazin-3-yl)phenoxy]butyl]-4,4-dimethyl-2,4-dihydro-pyrazol-3-one], the inhibition in vivo at 0.3 mg/kg in experiment [1] is ≥ 90%. For the same molecule, the IC50 in experiment [2] is < 0.01 µmol/L; in experiment [3], 0.01 to 0.1 µmol/L.

Consider `CCc1ccc2c(C3=NN(CCCCOc4ccc(C5=NNC(=O)C5(C)C)cc4)C(=O)C3(C)C)ccc(OC)c2n1` [Example 201, 5-(2-Ethyl-8-methoxyquinolin-5-yl)-2-[4-[4-(4,4-dimethyl-5-oxo-4,5-dihydro-1H-pyrazol-3-yl)phenoxy]butyl]-4,4-dimethyl-2,4-dihydro-pyrazol-3-one], for which the IC50 in experiment [2] lay within 0.1 to 1 µmol/L; in experiment [3], 0.01 to 0.1 µmol/L.

As to `CCc1ccc2c(C3=NN(CCCCOc4ccc(C5=NNC(=O)C5(C)C)cc4OC)C(=O)C3(C)C)ccc(OC)c2n1` [Example 204, 5-(2-Ethyl-8-methoxyquinolin-5-yl)-2-[4-[2-methoxy-4-(4,4-dimethyl-5-oxo-4,5-dihydro-1H-pyrazol-3-yl)phenoxy]butyl]-4,4-dimethyl-2,4-dihydro-pyrazol-3-one], the IC50 in experiment [2] and in experiment [3] was 0.1 to 1 µmol/L in each case.

As to `CCc1ccc2c(C3=NN(CCCCOc4ccc(C5=NNC(=O)CC5C)cc4OC)C(=O)C3(C)C)ccc(OC)c2n1` (stereo not drawn) [Example 208, 5-(2-Ethyl-8-methoxyquinolin-5-yl)-2-[4-[2-methoxy-4-(4-methyl-6-oxo-1,4,5,6-tetrahydropyridazin-3-yl)phenoxy]butyl]-4,4-dimethyl-2,4-dihydro-pyrazol-3-one], the figures for the IC50 in experiment [2] and in experiment [3] were 0.01 to 0.1 µmol/L and 0.1 to 1 µmol/L, respectively.

Turning to `COc1ccc(C2=NN(CCCCOc3ccc(C4=NNC(=O)CC4)c(F)c3F)C(=O)C2(C)C)c2cc(C(F)(F)F)oc12` [Example 216, 2-[4-[2,3-Difluoro-4-(6-oxo-1,4,5,6-tetrahydropyridazin-3-yl)phenoxy]butyl]-5-(7-methoxy-2-trifluoromethylbenzofuran-4-yl)-4,4-dimethyl-2,4-dihydro-pyrazol-3-one], the IC50 in experiment [2] and in experiment [3] was < 0.01 µmol/L in each case.

For the molecule `COc1ccc(C2=NN(CCCCOc3ccc(C4=NNC(=O)C4(C)C)c(F)c3F)C(=O)C2(C)C)c2cc(C(F)(F)F)oc12` [Example 217, 2-[4-[2,3-Difluoro-4-(4,4-dimethyl-5-oxo-4,5-dihydro-1H-pyrazol-3-yl)phenoxy]butyl]-5-(7-methoxy-2-trifluoromethylbenzofuran-4-yl)-4,4-dimethyl-2,4-dihydro-pyrazol-3-one], the results for the IC50 in experiment [2] and in experiment [3] were 0.1 to 1 µmol/L and < 0.01 µmol/L, respectively.

As to `COc1ccc(C2=NN(CCCCOc3ccc(C4=NNC(=O)CC4C)c(F)c3F)C(=O)C2(C)C)c2cc(C(F)(F)F)oc12` (stereo not drawn) [Example 218, 2-[4-[2,3-Difluoro-4-(4-methyl-6-oxo-1,4,5,6-tetrahydropyridazin-3-yl)phenoxy]butyl]-5-(7-methoxy-2-trifluoromethylbenzofuran-4-yl)-4,4-dimethyl-2,4-dihydro-pyrazol-3-one], the IC50 in experiment [2] and in experiment [3] was < 0.01 µmol/L in each case.

Regarding `COc1ccc(C2=NN(CCCCOc3ccc(C4=NNC(=O)CC4C)c(F)c3F)C(=O)C2(C)C)c2nc(C(F)(F)F)nn12` (stereo not drawn) [Example 225, 2-[4-[2,3-Difluoro-4-(4-methyl-6-oxo-1,4,5,6-tetrahydropyridazin-3-yl)phenoxy]butyl]-5-(5-methoxy-2-trifluoromethyl-[1,2,4]triazolo[1,5-a]pyridin-8-yl)-4,4-dimethyl-2,4-dihydro-pyrazol-3-one], the IC50 in experiment [2] was < 0.01 µmol/L; in experiment [3], 0.01 to 0.1 µmol/L.

On to `COc1ccc(C2=NN(CCCCOc3ccc(C4=NNC(=O)CC4)c(F)c3F)C(=O)C2(C)C)c2nc(C(F)(F)F)nn12` [Example 226, 2-[4-[2,3-Difluoro-4-(6-oxo-1,4,5,6-tetrahydropyridazin-3-yl)phenoxy]butyl]-5-(5-methoxy-2-trifluoromethyl-[1,2,4]triazolo[1,5-a]pyridin-8-yl)-4,4-dimethyl-2,4-dihydro-pyrazol-3-one], for which the IC50 is < 0.01 µmol/L in experiment [2] and 0.01 to 0.1 µmol/L in experiment [3].

For the molecule `COc1ccc(C2=NN(CCCCOc3ccc(C4=NNC(=O)C4(C)C)c(F)c3F)C(=O)C2(C)C)c2nc(C(F)(F)F)nn12` [Example 227, 2-[4-[2,3-Difluoro-4-(4,4-dimethyl-5-oxo-4,5-dihydro-1H-pyrazol-3-yl)phenoxy]butyl]-5-(5-methoxy-2-trifluoromethyl-[1,2,4]triazolo[1,5-a]pyridin-8-yl)-4,4-dimethyl-2,4-dihydro-pyrazol-3-one], the IC50 in experiment [2] lay within 0.01 to 0.1 µmol/L; in experiment [3] it was 0.1 to 1 µmol/L.

As for `COc1ccc(C2=NN(CCCCOc3ccc(C4=NNC(=O)C4(C)C)c(F)c3F)C(=O)C2(C)C)c2sc(C(F)(F)F)nc12` [Example 230, 2-[4-[2,3-Difluoro-4-(4,4-dimethyl-5-oxo-4,5-dihydro-1H-pyrazol-3-yl)phenoxy]butyl]-5-(4-methoxy-2-trifluoromethylbenzo[d]thiazol-7-yl)-4,4-dimethyl-2,4-dihydro-pyrazol-3-one], the IC50 in experiment [2] is 0.01 to 0.1 µmol/L; in experiment [3], < 0.01 µmol/L.

`CCc1cc2c(C3=NN(CCCCOc4ccc(C5=NNC(=O)CC5C)c(F)c4F)C(=O)C3(C)C)ccc(OC)n2c1` (stereo not drawn) [Example 231, 5-(2-Ethyl-5-methoxyindolidin-8-yl)-2-[4-[2,3-difluoro-4-(4-methyl-6-oxo-1,4,5,6-tetrahydropyridazin-3-yl)phenoxy]butyl]-4,4-dimethyl-2,4-dihydro-pyrazol-3-one]: the values for the IC50 in experiment [2] and in experiment [3] were < 0.01 µmol/L and 0.1 to 1 µmol/L, respectively.

Regarding `CCc1cc2c(C3=NN(CCCCOc4ccc(C5=NNC(=O)CC5)c(F)c4F)C(=O)C3(C)C)ccc(OC)n2c1` [Example 232, 5-(2-Ethyl-5-methoxyindolidin-8-yl)-2-[4-[2,3-difluoro-4-(6-oxo-1,4,5,6-tetrahydropyridazin-3-yl)phenoxy]butyl]-4,4-dimethyl-2,4-dihydro-pyrazol-3-one], the IC50 in experiment [2] is < 0.01 µmol/L; in experiment [3], 0.01 to 0.1 µmol/L.

Regarding `CCc1cc2c(C3=NN(CCCCOc4ccc(C5=NNC(=O)C5(C)C)c(F)c4F)C(=O)C3(C)C)ccc(OC)n2c1` [Example 233, 5-(2-Ethyl-5-methoxyindolidin-8-yl)-2-[4-[2,3-difluoro-4-(4,4-dimethyl-5-oxo-4,5-dihydro-1H-pyrazol-3-yl)phenoxy]butyl]-4,4-dimethyl-2,4-dihydro-pyrazol-3-one], the IC50 in experiment [2] lay within 0.01 to 0.1 µmol/L; in experiment [3], 0.1 to 1 µmol/L.

Take `CCc1ccc2c(C3=NN(CCOc4ccc(C5=NNC(=O)CC5C)c(F)c4F)C(=O)C3(C)C)ccc(OC)c2n1` (stereo not drawn) [Example 242, 5-(2-Ethyl-8-methoxyquinolin-5-yl)-2-[4-[2,3-difluoro-4-(4-methyl-6-oxo-1,4,5,6-tetrahydropyridazin-3-yl)phenoxy]ethyl]-4,4-dimethyl-2,4-dihydro-pyrazol-3-one]: the IC50 in experiment [2] was < 0.01 µmol/L; in experiment [3], 0.01 to 0.1 µmol/L.
